Laboratory results: patent US20240050406A1, “COMPOSITION COMPRISING OXIRACETAM FOR PREVENTING OR TREATING MUSCULAR DISEASE” (KSB TUGEN INC., priority 2021, published 2024)

What was measured:
[1] = tested on: model of sarcopenia caused by aging; assay: Aging animal model, 24-month-old mice, oxiracetam per concentration (Experimental Example 3); type: in vivo, C57BL/6J mice
Text: For an experimental group in the present invention, oxiracetam having a structure of Formula 1 was purchased from Tokyo Chemical Industry (Japan; Product No. 00398, CAS RN:62613-82-5, purity: 96%) and used.
As a model of sarcopenia caused by aging, 24-month-old male C57BL/6J mice were used. Until the day of the experiment, general feed (EEGJ30060: Cargill Agri Purina, Seongnam, Korea) and water were sufficiently supplied to the experimental animals, and the animals were acclimated for 1 week under an environment of a temperature of 23±2° C., a humidity of 55±10%, and a light-dark cycle of 12 hours-12 hours and used in the experiment.
The animals were randomly divided into groups of 10 animals, such as a control (vehicle, n=10), and 42, 83, 167, 333 mg/kg/day oxiracetam-administered groups (n=10 per concentration). To the oxiracetam-administered group, oxiracetam was orally administered using a Zonde needle for 93 days once a day at a dose of 42, 83, 167, or 333 mg/kg/day. During the same period, no drug was administered to the control group, and 100 μL of normal saline was orally administered at one time.
To measure grip strength, a grip strength test was performed. The maximum force presented when the forelimbs of an animal model of each group could no longer hold the rod by pulling the tail horizontally while holding the tail of the animal model and holding the rod of a device with both front paws was considered to be grip strength (N). The grip strength was measured once every 3 days, and after repeating five measurements at one time, the average value was shown. Grip strength adaptation training was performed at least three times before drug administration.
The lean body mass for the gastrocnemius muscle (GS) and tibialis anterior (TA) for each group was measured every 7 days. Specifically, animal models of each group were anesthetized using 3% isoflurane, fixed to a photographing bed, and then photographed. The respiration rates and temperatures of the animal models during photographing were measured using an animal monitoring system (SA Instruments, USA).
The whole body of the animal model was photographed through dual energy X-ray absorptiometry (DEXA) using iNSiGHT VET DXA (Osteosys, KR), and the lean body mass of each of the gastrocnemius muscle (GS) and the tibialis anterior (TA) was measured and calculated from the two-dimensional images of the gastrocnemius muscle (GS) and the tibialis anterior (TA) by a program using the region of interest (ROI).
(§1) Statistical processing was performed using GraphPad Prism (GraphPad Software Inc., San Diego, CA, USA). The results of each repeated experiment were expressed as mean±standard error of mean, and analyzed using the analysis of variance (Tukey's test), and statistical significance was acknowledged when the P-value was 0.05 or less.

C2C12 myotubes = assay: Myotube diameter in doxorubicin-induced cachexia cell model (Experimental Example 8); type: cell-based, mouse; conditions: doxorubicin 500 nM 48 h with or without oxiracetam 0.01, 0.1, 1, 10 and 30 μM; relative to control
Method: A mouse-derived C2C12 cell line was provided from the American Type Culture Collection (ATCC, CRL-1772; Manassas, VA, USA) and cultured at 37° C. in 5% CO2. In the proliferation phase of the cells before differentiation, high concentration glucose Dulbecco's modified Eagle's medium (DMEM) containing 1% penicillin/streptomycin and 10% fetal bovine serum (FBS) medium were used, and in the differentiation induction, the FBS medium was replaced with a 2% horse serum (HS)-containing medium. The C2C12 myoblasts were seeded into a 96 well culture plate and a 6 well culture plate at 2×10^5/well and 5×10^3/well, respectively, and cultured at 37° C. in a CO2 incubator. […]
Two days after anticancer agent and oxiracetam treatment, the anticancer agent-treated group (Doxorubicin), the oxiracetam-treated groups (Oxiracetam 0.01 μM, 0.1 μM, 1 μM, 10 μM and 30 μM), and the control (control) were photographed using an optical microscope at a room temperature, and the diameter (Diameter, %) of a myotube in each group was measured and compared.
as §1

[2] = Oxi 42, 83, 167 and 333 mg/kg/day, DEXA every 7 days, compared to control
[3] = Oxi 333 group (333 mg/kg/day), among dose groups

## NC(=O)CN1CC(O)CC1=O (racemic) [oxiracetam, (RS)-2-(4-hydroxy-2-oxopyrrolidin-1-yl)acetamide]
[1]; 42-333 mg/kg/day oral 93 days
  dose dependence of the effect on grip strength: increases in a concentration-dependent manner
[1]; Oxi 42, 83, 167 and 333 mg/kg/day oral 93 days, versus control (vehicle)
  change in grip strength (decrease in grip strength): significantly inhibited and rather increased
[1]; [2]
  lean body mass of the gastrocnemius muscle (GS): rather significantly increased
  lean body mass of the tibialis anterior (TA): rather significantly increased
[1]; [3]
  lean body mass of the gastrocnemius muscle (GS): greatest increase
  lean body mass of the tibialis anterior (TA): greatest increase
C2C12 myotubes
  diameter of myotube: significantly recovered and greatly increased to the control (normal group) level
